Results on ten molecules are retold here after paper PMC5518105, “Identification and characterization of the antiplasmodial activity of Hsp90 inhibitors” (Malaria Journal, 2017).

Like-named read-outs stand apart in the source and are kept apart here.

The test system of experiment [1] is P. falciparum chloroquine resistant W2. The experiment in a line: Growth inhibition assay (SYBR Green I), W2. The settings on record: Plasmodium falciparum, W2, 72 h.
Method: (§4) A 50% suspension of non-infected O positive erythrocytes was added every 2 days to adjust haematocrit to 5%. Parasite cultures were maintained at 37 °C in 5% O2 and 5% CO2 atmosphere with daily changes of culture media.
(§5) A synchronized P. falciparum culture, with over 80% ring forms, was used in the growth inhibition assay. […] A 190 μL aliquot of parasite culture was dispensed per well to microplates that were pre-dispensed with the compounds at various dilutions. […] Dilutions of Hsp90 inhibitors and DHA were prepared in water with a final concentration of DMSO below 0.05% (v/v).
(§6) The microplates were incubated at 37 °C in a controlled atmosphere (5% O2, 5% CO2 Nitrogen balanced) for 72 h. After incubation, the plates were subject to a freeze–thaw cycle (−80 °C) and the parasite growth was quantified by the SYBR Green I method as previously described [33]. Briefly, 100 µL of homogenized parasite culture was transferred into 96-well black plates. […] The plates were incubated at room temperature in darkness for 1 h.
(§7) Growth inhibition experiments were conducted at least three times per compound (biological replicates, n ≥ 3). The IC50 differences for each inhibitor between the two P. falciparum strains were compared with a t test.
The test system of experiment [2] is P. falciparum chloroquine sensitive 3D7. The experiment in a line: Growth inhibition assay (SYBR Green I), 3D7. The following applies: Plasmodium falciparum, 3D7, 72 h.
Method: as §4, §5, §6, §7
Experiment [3] deals with P. falciparum Grp94 (Plasmodium falciparum, UniProt Q8I0V4). The experiment in a line: biochemical. In kind it is binding. On the procedure: (§1) Full-length human recombinant HSP90α was purchased (Cayman Chemicals, MI), while the malaria recombinant parasite proteins were generated according to the following protocol. […] Growth at 37 °C continued until the OD600 reached ~1.0, whereupon the temperature was lowered to 18 °C and protein expression was induced by the addition of 1 mM isopropyl β-D-thiogalactopyranoside (IPTG). Overnight post-induction cells were collected by centrifugation and resuspended in binding buffer [50 mM Hepes pH 7.5, 500 mM NaCl, 1 mM benzamidine, and 1 mM phenylmethanesulfonyl fluoride (PMSF)]. The cells were lysed by adding chemical lysis buffer (2% CHAPS, 0.1 mg/mL lysozyme and 0.5 U/mL benzonase), the lysate was clarified by centrifugation. The supernatant was loaded on to a nickel-nitrilotriacetic acid column pre-equilibrated with binding buffer (50 mM Hepes pH 7.5, 500 mM NaCl). Following a wash step with binding buffer containing 5 mM imidazole, the bound protein was eluted with elution buffer (50 mM Hepes pH 7.5, 500 mM NaCl, 250 mM imidazole). The eluate was then loaded on to a 16/60 Superdex 200 size exclusion column pre-equilibrated with 50 mM Hepes pH 7.5 and 500 mM NaCl. Target protein-containing fractions were pooled and concentrated using centrifugal filter units (Amicon). The final protein products and samples for different steps in the purification procedures were evaluated in SDS-Page gels.
Chain of P. falciparum Grp94 (Q8I0V4 entry or part of it): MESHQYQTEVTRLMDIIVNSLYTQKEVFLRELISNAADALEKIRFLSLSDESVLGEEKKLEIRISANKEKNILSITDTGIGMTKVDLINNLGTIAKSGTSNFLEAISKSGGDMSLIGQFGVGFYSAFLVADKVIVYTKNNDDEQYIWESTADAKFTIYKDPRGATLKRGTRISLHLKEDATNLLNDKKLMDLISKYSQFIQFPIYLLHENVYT
(§2) SPR measurements were performed on Biacore T200 instrument (GE Healthcare) at 25 °C. Purified P. falciparum Hsp90 and PfGRP94 N-terminal domain, and full-length human Hsp90α were immobilized on a CM5 sensorchip using NHS/EDC coupling following the manufacturer protocol to a level of <10,000 RUs, a reference surfaces without immobilized proteins served as a control for nonspecific binding and refractive index changes. Seven different concentrations of the ligands between 0.4 nM and 1 mM, were injected in triplicate over the sensor chip at 30 μL/min in random order. The running buffer was 10 mM HEPES, pH 7.4, 150 mM NaCl, 0.005% P20, 1% DMSO and 2 mM MgCl2. Buffer alone injections were used as blanks. The sensor surface was regenerated between injections with a short injection of a buffer 10 mM HEPES, pH 7.4, 150 mM NaCl, 0.005% P20 and 3 mM EDTA. The Biacore responses recorded during the 30 s of the injection were used to estimate the association constant (k on) and the 300 s after the injection were used to estimate the dissociation constant (k off). All kinetic constants were estimated using double subtracted sensorgrams using BiaEvaluation Software (GE Healthcare), the kinetic constants were used to calculate the dissociation constant (K d).

Experiment [4] has as its target P. falciparum Hsp90 (Plasmodium falciparum, UniProt Q8IC05). The experiment in a line: biochemical. It counts as binding. Here is the method: as §1, §2
The target in experiment [5] is T1, human Hsp90α (Homo sapiens, UniProt P07900).
T1 construct: Full-length human recombinant HSP90α was purchased; purchased Cayman Chemicals, MI
The experiment in a line: Biacore SPR analysis, full-length human Hsp90α. In kind it is binding. The following applies: for kon: read-out: ka. Here is the method:
as §1
as §2, with “Seven different concentrations of the ligands between 0.4 nM and 1 mM, were injected in triplicate over the sensor chip at 30 μL/min in random order.” left out

For experiment [6], the system named is P. falciparum 3D7. The experiment in a line: Recrudescence assay, 3D7. In kind it is cell-based, Plasmodium falciparum. The following applies: 3D7, 100 nM for 48 h. On the procedure:
(§3) The assay is a modification of the previously reported bulk recrudescence assay. […] […] After drug exposure, the medium containing the drug was removed and the cultures were washed twice with compound-free media, and resuspended in RPMI to adjust haematocrit to 5%. The medium was changed every day and red blood cells were added every 2 days to adjust the haematocrit. The cultures were monitored daily until they reached 10% parasitaemia, which represented the end point of the experiment. Culture parasitaemia was determined by scoring >2000 erythrocytes in Giemsa-stained thin blood films as parasitized or not. The median number of days to reach this level of parasitaemia was reported for all the experiments. All experiments were conducted in triplicate; each replica was conducted on different days. The differences in the recovery times between control cultures to those exposed to Hsp90 inhibitors were analysed using the non-parametric statistic Kruskal–Wallis test. If the overall test was significant then Dunn’s multiple comparison tests were used to identify significant differences among pair comparisons. The same statistical analysis was applied when comparing P. falciparum cultures exposed to DHA alone versus DHA in combination with Hsp90 inhibitors. […] The statistical analyses were performed with the software Prism v6 (GraphPad Software, San Diego, CA).

The test system of experiment [7] is P. falciparum W2. In words: Recrudescence assay, W2. In kind it is cell-based, Plasmodium falciparum. The following applies: W2, 100 nM for 48 h. Here is the method:
as §3

[8] abbreviates: SPR, 25 °C, calculated from kinetic constants, read-out: Kd.
[9] abbreviates: Kd, SPR, 25 °C, calculated from kinetic constants.

Chain of P. falciparum Hsp90 (Q8IC05 entry or part of it): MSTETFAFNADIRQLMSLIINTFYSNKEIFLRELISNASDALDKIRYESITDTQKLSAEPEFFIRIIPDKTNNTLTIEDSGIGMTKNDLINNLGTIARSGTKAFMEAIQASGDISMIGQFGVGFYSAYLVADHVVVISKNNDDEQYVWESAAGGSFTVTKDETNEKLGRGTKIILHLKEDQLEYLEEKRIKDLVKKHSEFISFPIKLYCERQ

`CC1(C)CC(=O)c2c(C(F)(F)F)nn(-c3ccc(C(N)=O)c(N[C@H]4CC[C@H](OC(=O)CN)CC4)c3)c2C1` [SNX-5422]: the concentration for an effect of 90% (IC90) (as a rule, the point of the concentration-response curve where the effect stands at 90%) stood at 6.65 µM in experiment [1] and 4320 nM in experiment [2]. The IC50 (usually the point on the concentration scale where inhibition reaches its midpoint) in experiment [1] (synchronized ring culture) came to 2010 nM; in experiment [2] (synchronized ring culture), 2140 nM.
For the molecule `Nc1ncnc2c1ncn2[C@@H]1O[C@H](COP(=O)(O)OP(=O)(O)O)[C@@H](O)[C@H]1O` [ADP], the ka in experiment [3] (SPR, 25 °C) stood at 1360 M⁻¹ s⁻¹; in experiment [4] (SPR, 25 °C), 107 M⁻¹ s⁻¹; in experiment [5] (SPR, 25 °C), 109 M⁻¹ s⁻¹. In addition, the kd in experiment [3] (SPR, 25 °C) was 0.003 s⁻¹; in experiment [4] (SPR, 25 °C), 0.002 s⁻¹; in experiment [5] (SPR, 25 °C), 0.006 s⁻¹. The Kd (as a rule, the free concentration of one partner at which half of the binding sites on the other are occupied at equilibrium, for simple one-to-one binding) in experiment [3] (setting [8]) was 0.00221 mM; in experiment [4] (setting [8]), 20.6 µM; in experiment [5] (SPR, 25 °C, calculated from kinetic constants), 63.8 µM.
Turning to `CC(C)NCCCn1c(Sc2cc(Cl)cc(Cl)c2)nc2c(N)ncnc21` [PUWS13], the Kd in experiment [3] is 5.6 mM; in experiment [4] (setting [9]) it was 0.069 µM. Besides, the ka in experiment [3] (SPR, 25 °C) was 149 M⁻¹ s⁻¹; in experiment [4] (SPR, 25 °C) it was 598,000 1/Ms. In addition, the kd in experiment [3] (SPR, 25 °C) was 0.843 s⁻¹; in experiment [4] (SPR, 25 °C), 0.041 s⁻¹; in experiment [5] (SPR, 25 °C), 0.022 s⁻¹. In experiment [5], the kon was 811 M⁻¹ s⁻¹. In experiment [1], the 90% effect level (IC90) was put at 9.06 µM. Moreover, the values for the half-maximal inhibitory concentration (IC50) in experiment [1] (synchronized ring culture) and in experiment [2] (synchronized ring culture) were 3880 nM and 7000 nM, respectively.
Consider `C[C@H]1[C@@H](O)O[C@@H]2O[C@@]3(C)CC[C@H]4[C@H](C)CC[C@@H]1[C@@]24OO3` [DHA, dihydroartemisinin], for which the “days to recover to 10% parasitaemia (median)” value worked out at 12 days in experiment [6] and 13 days in experiment [7]. Also, the IC90 is 0.0018 µM in experiment [1] and 5.2 nM in experiment [2]. Besides, the values for the half-maximal inhibitory concentration (IC50) in experiment [1] (synchronized ring culture) and in experiment [2] (synchronized ring culture) were 0.5 nM and 1.2 nM, respectively.
With `CC(C)c1cc(C(=O)N2Cc3ccc(CN4CCN(C)CC4)cc3C2)c(O)cc1O` [AT13387, (2,4-dihydroxy-5-isopropylphenyl)-[5-(4-methylpiperazin-1-ylmethyl)-1,3-dihydroisoindol-2-yl]methanone], the values for the dissociation constant Kd in experiment [3] and in experiment [4] (setting [9]) were 2.98 mM and 46.5 µM, respectively. Moreover, the ka was 216 M⁻¹ s⁻¹ in experiment [3] (SPR, 25 °C) and 212 M⁻¹ s⁻¹ in experiment [4] (SPR, 25 °C). The kd was 0.643 s⁻¹ in experiment [3] (SPR, 25 °C); 0.009 s⁻¹ in experiment [4] (SPR, 25 °C); 0.348 s⁻¹ in experiment [5] (SPR, 25 °C). In experiment [5], the kon is 570 M⁻¹ s⁻¹. For the same molecule, the IC90 in experiment [1] turned out to be 5.37 µM; in experiment [2], 4570 nM. The IC50 in experiment [1] (synchronized ring culture) was 531 nM; in experiment [2] (synchronized ring culture), 665 nM.
In experiment [3] (SPR, 25 °C), `CC1(C)CC(=O)c2c(C(F)(F)F)nn(-c3ccc(C(N)=O)c(N[C@H]4CC[C@H](O)CC4)c3)c2C1` [SNX-2112] showed a ka of 4720 M⁻¹ s⁻¹ and a kd of 0.0006 s⁻¹. Also, in experiment [4] (SPR, 25 °C), the ka is given as 20,300 1/Ms and the kd came out at 0.003 s⁻¹. In addition, the IC90 in experiment [1] is above 10 µM. This molecule yielded an IC50 in experiment [1] (synchronized ring culture) of 1700 nM.
Turning to `CC(C)NCCCn1c(Sc2cc3c(cc2I)OCO3)nc2c(N)ncnc21` [PUH71], in experiment [4], the ka was 356,000 1/Ms and the kd is 0.005 s⁻¹. This molecule returned a kd in experiment [5] of 0.007 s⁻¹. In experiment [1], the IC50 stood at 4420 nM and the concentration for an effect of 90% (IC90) is above 10 µM. Inhibition in experiment [2] was half-maximal at 3920 nM (IC50).
In experiment [1], `CCN(CC)CCCC(C)Nc1ccnc2cc(Cl)ccc12` (stereo not drawn) [CQ, Chloroquine] yielded a half-maximal inhibitory concentration (IC50) of 129 nM and an IC90 of 0.39 µM. In experiment [2], this molecule came in with an IC50 of 37.9 nM and an IC90 of 67.2 nM.
With `COC1=C2C[C@@H](C)C[C@H](OC)[C@H](O)[C@@H](C)/C=C(\C)[C@H](OC(N)=O)[C@@H](OC)/C=C\C=C(/C)C(=O)NC(=CC1=O)C2=O` [Geldanamycin, geldanamycin], in experiment [1], the half-inhibitory concentration (IC50) came out at 200 nM and the 90% effect level (IC90) was put at 2.63 µM. In experiment [2], half-maximal inhibition (IC50) was put at 215 nM and the IC90 was 1700 nM.
With `CC(C)c1cc(-c2n[nH]c(=O)n2-c2ccc3c(ccn3C)c2)c(O)cc1O` [STA-9090], the Kd was 1e-06 mM in experiment [3] and 0.121 µM in experiment [4] (Kd). Besides, the ka in experiment [3] (SPR, 25 °C) stood at 1.7e+06 M⁻¹ s⁻¹; in experiment [4] (SPR, 25 °C), 1.27 M⁻¹ s⁻¹. Further, the kd in experiment [3] (SPR, 25 °C) was found to be 0.003 s⁻¹; in experiment [4] (SPR, 25 °C), 1.5e-07 s⁻¹. Also, the 90% effect concentration (IC90) in experiment [1] was above 10 µM; in experiment [2] it was 4110 nM. In addition, the 50% inhibitory concentration (IC50) stood at 1290 nM in experiment [1] (synchronized ring culture) and 1250 nM in experiment [2] (synchronized ring culture).
